According to patent publication US4241052A, “Novel nitrosourea compounds and process for preparing the same” (Tanabe Seiyaku Co., Ltd., priority 1978, dated 1980):

Tests used:
[1] = Preventive effect against the growth of Ehrlich ascites carcinoma (Method A); format: in vivo, mice (ICR, female); details: mouse, in vivo, ip; max dose, 100% inhibition without death; doses of the table in mg/kg/day; read-out: MTD (Maximum Tolerated Dose)
Experimental: (§1) (A) Preventive effect against the growth of Ehrlich ascites tumor
(§2) 10^6 tumor cells of Ehrlich ascites carcinoma were inoculated intraperitoneally into a group of five femal mice (ICR mice, body weight: 19-23 g). A test compound was dissolved in a physiological saline solution and administered intraperitoneally to the mice. The administration of the test compound was began 24 hours after the inoculation of the tumor cells and performed once a day for 5 days. The volume of ascites in the treated mice were measured after 7 days of the experiment.

[2] = system: Ehrlich ascites carcinoma; assay: as above; format: in vivo, mice (ICR, female); details: for inhibition in vivo at 0.78 mg/kg: 0.78 mg/kg/day i.p.; for inhibition in vivo at 1.56 mg/kg: 1.56 mg/kg/day i.p.; for inhibition in vivo at 6.25 mg/kg: 6.25 mg/kg/day i.p.; for inhibition in vivo at 25 mg/kg: 25 mg/kg/day i.p.; for inhibition in vivo at 100 mg/kg: 100 mg/kg/day i.p.; for minimal effective dose: 168 h, min dose, 100% inhibition, doses of the table in mg/kg/day, read-out: MED (Minimum Effective Dose); for inhibition in vivo at 0.39 mg/kg: 0.39 mg/kg/day i.p.; for inhibition in vivo at 3.12 mg/kg: 3.12 mg/kg/day i.p.
Experimental: as §1, §2

Leukemia L-1210 = assay: Effect on life span of mice implanted with leukemic cells of L-1210 (Method B); format: in vivo, mice (BDF1, male); details: 5 days
Experimental: (B) Effect on the life span of mice implanted with leukemic cells of L-1210
10^5 leukemic cells of L-1210 were inoculated intraperitoneally into a group of four male mice (BDF1 mice, body weight: 19-23 g). A test compound was dissolved in a physiological saline solution and administered intraperitoneally to the mice. The administration of the test compound was began 24 hours after the inoculation of the leukemic cells and performed once a day for 5 days. The survival days of the treated mice were observed.

[3] = Mus musculus, Ehrlich, ip, 120 h, 5 days, read-out: Inhibition ratio
[4] = Mus musculus, Ehrlich, ip, 120 h, 400 mg/kg/day i.p., 5 days, read-out: Inhibition ratio

Structure (SMILES) | MTD at 168 h [1] | Toxic (number of mice died/number of mice used) ([2]; 800 mg/kg/day i.p., 5 days) | Therapeutic index (MTD/MED) [2] | inhibition in vivo at 0.78 mg/kg [2, 3] | inhibition in vivo at 1.56 mg/kg [2, 3] | inhibition in vivo at 6.25 mg/kg [2, 3] | inhibition in vivo at 25 mg/kg [2, 3] | inhibition in vivo at 100 mg/kg [2, 3] | inhibition in vivo at 400 mg/kg [2, 4] | minimal effective dose ([2]; Mus musculus, Ehrlich, ip) | 60-day survivors (mice survived/mice used) (Leukemia L-1210; 25 mg/kg/day i.p.) | ILS (Leukemia L-1210; 25 mg/kg/day i.p.) | 60-day survivors (mice survived/mice used) (Leukemia L-1210; 200 mg/kg/day i.p.) | ILS (Leukemia L-1210; 200 mg/kg/day i.p.) | Toxic (number of mice died/number of mice used) ([2]; 200 mg/kg/day i.p., 5 days) | inhibition in vivo at 0.39 mg/kg [2, 3] | 60-day survivors (mice survived/mice used) (Leukemia L-1210; 100 mg/kg/day i.p.) | ILS (Leukemia L-1210; 100 mg/kg/day i.p.) | also measured
COc1ccc(CN(C(=O)N(CCCl)N=O)C2O[C@H](CO)[C@@H](O[C@H]3O[C@H](CO)[C@@H](O)[C@H](O)[C@H]3O)[C@H](O)[C@H]2O)cc1 (stereo partly drawn) [Compound 3, 1-(2-chloroethyl)-1-nitroso-3-(p-methoxybenzyl)-3-[O-α-D-glucopyranosyl-(1→4)-D-glucopyranosyl]urea] | 400 mg/kg/day | 5/5 | 256 | 23.1% | 100% | 100% | 100% | 100% | 100% | 1.56 mg/kg/day | 0/4 | 50.7% | 2/4 | > 328.8% | – | – | – | – | 60-day survivors (mice survived/mice used) (Leukemia L-1210; 400 mg/kg/day i.p.): 4/4; ILS (Leukemia L-1210; 400 mg/kg/day i.p.): > 721.9%
O=NN(CCCl)C(=O)N(CC1CCCO1)C1O[C@H](CO)[C@H](O)[C@H](O)[C@H]1O (stereo partly drawn) [Compound 9, 1-(2-chloroethyl)-1-nitroso-3-tetrahydrofurfuryl-3-(D-galactopyranosyl)urea] | 100 mg/kg/day | – | 64 | 37.5% | 100% | 100% | 100% | 100% | – | 1.56 mg/kg/day | 4/4 | > 689.5% | – | – | 5/5 | 6.2% | 4/4 | > 689.5% | 60-day survivors (mice survived/mice used) (Leukemia L-1210; 6.25 mg/kg/day i.p.): 0/4; ILS (Leukemia L-1210; 6.25 mg/kg/day i.p.): 55.3%
O=NN(CCCl)C(=O)N(Cc1ccccc1)C1O[C@H](CO)[C@@H](O[C@H]2O[C@H](CO)[C@@H](O)[C@H](O)[C@H]2O)[C@H](O)[C@H]1O (stereo partly drawn) [Compound 1, 1-(2-chloroethyl)-1-nitroso-3-benzyl-3-[O-α-D-glucopyranosyl-(1→4)-D-glucopyranosyl]urea] | 400 mg/kg/day | 5/5 | 256 | 66.7% | 100% | 100% | 100% | 100% | 100% | 1.56 mg/kg/day | 0/4 | 55.2% | 4/4 | > 589.7% | – | 9.3% | 1/4 | > 236.8% | –
O=NN(CCCl)C(=O)N(CC1CC1)C1O[C@H](CO)[C@H](O)[C@H](O)[C@H]1O (stereo partly drawn) [Compound 8, 1-(2-chloroethyl)-1-nitroso-3-cyclopropylmethyl-3-(D-galactopyranosyl)urea] | 100 mg/kg/day | – | 128 | 100% | 100% | 100% | 100% | 100% | – | 0.78 mg/kg/day | 4/4 | > 650.0% | – | – | 3/5 | 21.1% | – | – | 60-day survivors (mice survived/mice used) (Leukemia L-1210; 6.25 mg/kg/day i.p.): 0/4; ILS (Leukemia L-1210; 6.25 mg/kg/day i.p.): 53.8%; 60-day survivors (mice survived/mice used) (Leukemia L-1210; 50 mg/kg/day i.p.): 4/4; ILS (Leukemia L-1210; 50 mg/kg/day i.p.): > 650.0%
O=NN(CCCl)C(=O)N(Cc1ccco1)C1O[C@H](CO)[C@@H](O[C@H]2O[C@H](CO)[C@@H](O)[C@H](O)[C@H]2O)[C@H](O)[C@H]1O (stereo partly drawn) [Compound 6, 1-(2-chloroethyl)-1-nitroso-3-furfuryl-3-[O-α-D-glucopyranosyl-(1→4)-D-glucopyranosyl]urea] | 400 mg/kg/day | 5/5 | 128 | 21.6% | 76.5% | 100% | 100% | 100% | 100% | 3.12 mg/kg/day | 0/4 | 65.3% | 4/4 | > 733.3% | – | – | 2/4 | > 351.4% | inhibition in vivo at 3.12 mg/kg [2, 3]: 100%
O=NN(CCCl)C(=O)N(Cc1cccs1)C1OC[C@H](O)[C@H](O)[C@H]1O (stereo partly drawn) [Compound 13, 1-(2-chloroethyl)-1-nitroso-3-(thiophen-2-yl-methyl)-3-(L-arabinopyranosyl)urea] | 100 mg/kg/day | – | 128 | 100% | 100% | 100% | 100% | 100% | – | 0.78 mg/kg/day | 2/4 | > 442.9% | – | – | 5/5 | 54% | – | – | inhibition in vivo at 0.19 mg/kg ([2]; Mus musculus, Ehrlich, ip, 120 h, 0.19 mg/kg/day i.p., 5 days, read-out: Inhibition ratio): 18%; 60-day survivors (mice survived/mice used) (Leukemia L-1210; 12.5 mg/kg/day i.p.): 0/4; ILS (Leukemia L-1210; 12.5 mg/kg/day i.p.): 121.4%; 60-day survivors (mice survived/mice used) (Leukemia L-1210; 50 mg/kg/day i.p.): 2/4; ILS (Leukemia L-1210; 50 mg/kg/day i.p.): > 414.3%
O=NN(CCCl)C(=O)N(CCc1ccccc1)C1O[C@H](CO)[C@@H](O[C@H]2O[C@H](CO)[C@@H](O)[C@H](O)[C@H]2O)[C@H](O)[C@H]1O (stereo partly drawn) [Compound 4, 1-(2-chloroethyl)-1-nitroso-3-phenethyl-3-[O-α-D-glucopyranosyl-(1→4)-D-glucopyranosyl]urea] | 200 mg/kg/day | – | 64 | 2.6% | 66.7% | – | – | – | – | 3.12 mg/kg/day | – | – | – | – | – | – | – | – | Toxic (number of mice died/number of mice used) ([2]; 400 mg/kg/day i.p., 5 days): 5/5; inhibition in vivo at 3.12 mg/kg [2, 3]: 100%; inhibition in vivo at 12.5 mg/kg ([2]; Mus musculus, Ehrlich, ip, 120 h, 12.5 mg/kg/day i.p., 5 days, read-out: Inhibition ratio): 100%; inhibition in vivo at 50 mg/kg ([2]; Mus musculus, Ehrlich, ip, 120 h, 50 mg/kg/day i.p., 5 days, read-out: Inhibition ratio): 100%; inhibition in vivo at 200 mg/kg ([2]; Mus musculus, Ehrlich, ip, 120 h, 200 mg/kg/day i.p., 5 days, read-out: Inhibition ratio): 100%
